Assays:
[1] = test system: NCI-H1417 cells (human small-cell lung cancer cell lines); test: cells; details: NCI-H1417, read-out: Cell-Growth Inhibition Test: NCI-H1417 Cells IC50 (nM);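 further: growth of NCI-H1417 cells over 10 days at 37 °C, read as viable-cell luminescence by CellTiter-Glo 2.0, expressed as % of DMSO-only control wells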
[2] = test system: HEL cells (human acute myelocytic leukemia cell lines); test: cells; details: read-out: Cell-Growth Inhibition Test: HEL Cells IC50 (nM);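 further: viable cell count by CellTiter-Glo 2.0 luminescence after 5 days of culture at 37 °C, growth expressed relative to DMSO-only wells as 100%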
[3] = test system: NCI-H146 cells (human small-cell lung cancer cell lines); test: Cell-growth inhibition test: NCI-H146 cells; format: cell-based; details: Homo sapiens, NCI-H146, read-out: Cell-Growth Inhibition Test: NCI-H146 Cells IC50 (nM)
Procedure: Under the following conditions, an in vitro cell-growth inhibition test was performed with respect to HEL cells (human acute myelocytic leukemia cell lines), NCI-H1417 cells (human small-cell lung cancer cell lines), and NCI-H146 cells (human small-cell lung cancer cell lines).
The cells with the compound of the present invention or with dimethylsulfoxide alone were cultured at 37° C. in a 5% carbon-dioxide-containing incubator for 5 days (HEL cells) or 10 days (NCI-H1417 cells and NCI-H146 cells). After culture, the plate was allowed to stand at room temperature for 30 minutes, and 100 μL of the supernatant was removed from each well to leave 100 μL of the cell culture solution. To each well containing the remaining 100 μL of the cell culture solution, the same amount of CellTiter-Glo 2.0 Assay (Promega, Cat #: G9242) was added. The microplate was shaken with a plate mixer for 1 minute and then allowed to stand in a dark place for 10 minutes. Thereafter, the luminescence intensity of viable cells in each well was measured using a microplate reader (PerkinElmer, EnSpire). […] Cell growth rate (%)=T/C×100 T: The luminescence intensity in a well to which the compound of the present invention was added (count per second) C: The luminescence intensity in a well to which dimethylsulfoxide alone was added (count per second)

SMILES	IC50 [1] [nM]	IC50 [2] [nM]	IC50 [3] [nM]
Cn1ncc2cc(-c3ccc(C(=O)N4[C@@H]5CC[C@H]4C[C@@H](N)C5)cc3-c3ccc(C#N)c(F)c3)c(F)cc21 [Example 124]	9.02	2.84	–
CC(C)(O)Cn1nnc2cc(-c3ccc(C(=O)N4C5CCC4C(N)C5)cc3-c3ccc(C#N)c(F)c3)c(F)c(C3CC3)c21 [Example 279, 5′-((1R,2R,4S)-rel-2-amino-7-azabicyclo[2.2.1]heptane-7-carbonyl)-2′-(7-cyclopropyl-6-fluoro-1-(2-hydroxy-2-methylpropyl)-1H-benzo[d][1,2,3]triazol-5-yl)-3-fluoro-[1,1′-biphenyl]-4-carbonitrile-isomer-X]	0.9	1.59	–
CCCn1nnc2cc(-c3ccc(C(=O)N4[C@@H]5CC[C@H]4C[C@@H](N)C5)cc3-c3ccc(C#N)c(F)c3)c(F)cc21 [Example 168]	7.29	5.29	–
Cc1ccc(-c2ccc(C(=O)N3[C@@H]4CC[C@H]3C[C@@H](N)C4)cc2-c2ccc(C#N)c(F)c2)c(F)c1 [Example 21]	32.6	8.34	–
CC(C)(O)Cn1ncc2cc(-c3ccc(C(=O)N4C5CCC4C(N)C5)cc3-c3ccc(C#N)c(F)c3)c(F)cc21 (centres unmarked) [Example 176]	–	0.2	–
N#Cc1ccc(-c2cc(C(=O)N3[C@@H]4CC[C@H]3C[C@H](N)C4)ccc2-c2ccc3ccccc3c2)cc1F [Example 104]	49.8	28.8	–
CC(C)(O)Cn1ccc2cc(-c3ccc(C(=O)N4C5CCC4C(N)C5)cc3-c3ccc(C#N)c(F)c3)c(F)cc21 (centres unmarked) [Example 171]	–	0.09	–
CC(C)(O)Cn1cc(C(=O)O)c2cc(-c3ccc(C(=O)N4C5CCC4C(N)C5)cc3-c3ccc(C#N)c(F)c3)c(F)cc21 [Example 222, 5-(5-((1S,2S,4R)-rel-2-amino-7-azabicyclo[2.2.1]heptane-7-carbonyl)-4′-cyano-3′-fluoro-[1,1′-biphenyl]-2-yl)-6-fluoro-1-(2-hydroxy-2-methylpropyl)-1H-indole-3-carboxylic acid-isomer-X]	41.8	38	–
N#Cc1ccc(-c2cc(C(=O)N3C4CCC3C(N)C4)ccc2-c2cc3nnn(CC4(O)CCC4)c3c(Cl)c2F)cc1F [Example 257, 5′-((1S,2S,4R)-rel-2-amino-7-azabicyclo[2.2.1]heptane-7-carbonyl)-2′-(7-chloro-6-fluoro-1-((1-hydroxycyclobutyl)methyl)-1H-benzo[d][1,2,3]triazol-5-yl)-3-fluoro-[1,1′-biphenyl]-4-carbonitrile-isomer-X]	–	0.13	0.39
CN1CCOc2cc(-c3ccc(C(=O)N4[C@@H]5CC[C@H]4C[C@@H](N)C5)cc3-c3ccc(C#N)c(F)c3)ccc21 [Example 128]	–	5.7	–
Cn1nnc2cc(-c3ccc(C(=O)N4C5CCC4C(N)C5)cc3-c3ccc(C#N)c(F)c3)c(F)c(F)c21 (centres unmarked) [Example 175]	–	0.2	–
CC(C)N[C@@H]1C[C@H]2CC[C@@H](C1)N2C(=O)c1ccc(-c2ccc(CC(C)(C)O)cc2F)c(-c2ccc(C#N)c(F)c2)c1 [Example 113]	13.7	9	–
Cn1nnc2cc(-c3ccc(C(=O)N4[C@@H]5CC[C@H]4C[C@H](N)C5)cc3-c3ccc(C#N)c(F)c3)c(F)cc21 [Example 109]	1.81	15.1	–
Cn1ncc2c(F)c(-c3ccc(C(=O)N4[C@@H]5CC[C@H]4C[C@H](N)C5)cc3-c3ccc(C#N)c(F)c3)ccc21 [Example 110]	3.54	7.41	–
CC(C)(O)Cn1ncc2cc(-c3ccc(C(=O)N4[C@@H]5CC[C@H]4C[C@@H](N)C5)cc3-c3ccc(C#N)c(F)c3)c(F)cc21 [Example 142]	3.79	3.86	–
N#Cc1ccc(-c2cc(C(=O)N3[C@@H]4CC[C@H]3C[C@@H](N)C4)ccc2-c2cc3nnn(CC4(O)CCC4)c3c(C(F)F)c2F)cc1F [Example 262, 5′-((3-endo)-3-amino-8-azabicyclo[3.2.1]octane-8-carbonyl)-2′-(7-(difluoromethyl)-6-fluoro-1-((1-hydroxycyclobutyl)methyl)-1H-benzo[d][1,2,3]triazol-5-yl)-3-fluoro-[1,1′-biphenyl]-4-carbonitrile]	–	0.93	3.1
CN(C)c1ccc(-c2ccc(C(=O)N3[C@@H]4CC[C@H]3C[C@@H](N)C4)cc2-c2ccc(C#N)c(F)c2)cn1 [Example 131]	30.9	15.2	–
CC(C)(O)Cc1ccc(-c2ccc(C(=O)N3[C@@H]4CC[C@H]3C[C@H](N)C4)cc2-c2ccc(C#N)c(F)c2)c(F)c1 [Example 28]	4.4	–	–
Cc1ccc(-c2ccc(C(=O)N3[C@@H]4CC[C@H]3C[C@H](N)C4)cc2-c2ccc(C#N)cc2)cc1 [Example 7]	28	14.8	–

SMILES	IC50 [1] [nM]	IC50 [2] [nM]	IC50 [3] [nM]
COCCc1ccc(-c2ccc(C(=O)N3[C@@H]4CC[C@H]3C[C@H](NC(C)C)C4)cc2-c2ccc(C#N)c(F)c2)c(F)c1 [Example 112]	20.5	–	–
Cn1cnc2cc(-c3ccc(C(=O)N4[C@@H]5CC[C@H]4C[C@@H](N)C5)cc3-c3ccc(C#N)c(F)c3)c(F)cc21 [Example 130]	8.25	22.2	–
Cn1cnc2cc(-c3ccc(C(=O)N4[C@@H]5CC[C@H]4C[C@H](N)C5)cc3-c3ccc(C#N)c(F)c3)c(F)cc21 [Example 108]	3.99	36.4	–
Cn1cc(C(=O)O)c2cc(-c3ccc(C(=O)N4C5CCC4C(N)C5)cc3-c3ccc(C#N)c(F)c3)c(F)cc21 [Example 224, 5-(5-((1S,2S,4R)-rel-2-amino-7-azabicyclo[2.2.1]heptane-7-carbonyl)-4′-cyano-3′-fluoro-[1,1′-biphenyl]-2-yl)-6-fluoro-1-methyl-1H-indole-3-carboxylic acid-isomer-X]	–	46.2	–
N#Cc1ccc(-c2cc(C(=O)N3[C@@H]4CC[C@H]3C[C@H](N)C4)ccc2-c2ccc3cccnc3c2)cc1F [Example 107]	18.2	–	–
Cn1c(=O)sc2cc(-c3ccc(C(=O)N4[C@@H]5CC[C@H]4C[C@@H](N)C5)cc3-c3ccc(C#N)c(F)c3)ccc21 [Example 133]	17.9	17.7	–
Cc1ccc(-c2ccc(C(=O)N3[C@@H]4CC[C@H]3C[C@@H](N)C4)cc2-c2ccc(C#N)c(F)c2)c(F)c1F [Example 144]	–	6.37	–
CC(C)(O)Cn1ccc2cc(-c3ccc(C(=O)N4[C@@H]5CC[C@H]4C[C@@H](N)C5)cc3-c3ccc(C#N)c(F)c3)c(F)cc21 [Example 136]	2.39	0.9	–
CC(C)(O)Cn1nc(Br)c2cc(-c3ccc(C(=O)N4[C@@H]5CC[C@H]4C[C@@H](N)C5)cc3-c3ccc(C#N)c(F)c3)c(F)cc21 [Example 178, 5′-((3-endo)-3-amino-8-azabicyclo[3.2.1]octane-8-carbonyl)-2′-(3-bromo-6-fluoro-1-(2-hydroxy-2-methylpropyl)-1H-indazol-5-yl)-3-fluoro-[1,1′-biphenyl]-4-carbonitrile]	3.03	3.57	–
CC(C)(O)Cn1nnc2cc(-c3ccc(C(=O)N4C5CCC4C(N)C5)cc3-c3ccc(C#N)c(F)c3)c(F)c(C(F)F)c21 [Example 246, 5′-((1S,2S,4R)-rel-2-amino-7-azabicyclo[2.2.1]heptane-7-carbonyl)-2′-(7-(difluoromethyl)-6-fluoro-1-(2-hydroxy-2-methylpropyl)-1H-benzo[d][1,2,3]triazol-5-yl)-3-fluoro-[1,1′-biphenyl]-4-carbonitrile-isomer-X]	0.81	0.37	–
CC(C)(C)n1nnc2cc(-c3ccc(C(=O)N4[C@@H]5CC[C@H]4C[C@@H](N)C5)cc3-c3ccc(C#N)c(F)c3)c(F)cc21 [Example 139]	–	16.9	–
COCCc1ccc(-c2ccc(C(=O)N3[C@@H]4CC[C@H]3C[C@H](N)C4)cc2-c2ccc(C#N)c(F)c2)c(F)c1 [Example 26]	3.15	4.83	–
Cn1cnc2cc(-c3ccc(C(=O)N4[C@@H]5CC[C@H]4C[C@@H](N)C5)cc3-c3ccc(C#N)c(F)c3)c(F)c(F)c21 [Example 126]	5.02	5.39	–
CC(C)(O)Cn1nnc2cc(-c3ccc(C(=O)N4CC[C@H](N)C4)cc3-c3ccc(C#N)c(F)c3)c(F)c(F)c21 [Example 162]	4.69	17.7	–
N#Cc1ccc(-c2cc(C(=O)N3[C@@H]4CC[C@H]3C[C@H](N)C4)ccc2-c2ccc3cccnc3c2F)cc1F [Example 105]	11.7	–	–
CCn1nnc2cc(-c3ccc(C(=O)N4[C@@H]5CC[C@H]4C[C@@H](N)C5)cc3-c3ccc(C#N)c(F)c3)c(F)cc21 [Example 160]	9.2	7.03	–
Cn1nnc2cc(-c3ccc(C(=O)N4[C@@H]5CC[C@H]4C[C@@H](N)C5)cc3-c3ccc(C#N)c(F)c3)c(F)cc21 [Example 125]	8.43	7.57	–
Cn1nnc2cc(-c3ccc(C(=O)N4[C@@H]5CC[C@H]4C[C@@H](N)C5)cc3-c3ccc(C#N)c(F)c3)c(F)c(F)c21 [Example 145]	3.29	1.61	–
CN1CCOc2cc(-c3ccc(C(=O)N4[C@@H]5CC[C@H]4C[C@H](N)C5)cc3-c3ccc(C#N)c(F)c3)ccc21 [Example 106]	6.15	5.74	–
